US20230357159A1, “QUINOLINE COMPOUNDS AS SELECTIVE AND/OR DUAL MODULATORS OF BILE ACID RECEPTORS AND LEUKOTRIENE CYSTEINYL RECEPTORS” (PRECISION BIO-THERAPEUTICS S.R.L., priority 2020, published 2023)
Converted amounts (≈) assume the structure as drawn.

Tests used:
FXR [1] = biological target: T1, FXR (Homo sapiens, UniProt Q96RI1); experiment: FXR-mediated transactivation, luciferase reporter in HepG2 cells; type: cell-based; conditions: dose-response 0.1-75 µM, read-out: FXR ECso
T1 construct: expressed in transfected cells; host or cells: HepG2
T1 sequence (Q96RI1 1-486): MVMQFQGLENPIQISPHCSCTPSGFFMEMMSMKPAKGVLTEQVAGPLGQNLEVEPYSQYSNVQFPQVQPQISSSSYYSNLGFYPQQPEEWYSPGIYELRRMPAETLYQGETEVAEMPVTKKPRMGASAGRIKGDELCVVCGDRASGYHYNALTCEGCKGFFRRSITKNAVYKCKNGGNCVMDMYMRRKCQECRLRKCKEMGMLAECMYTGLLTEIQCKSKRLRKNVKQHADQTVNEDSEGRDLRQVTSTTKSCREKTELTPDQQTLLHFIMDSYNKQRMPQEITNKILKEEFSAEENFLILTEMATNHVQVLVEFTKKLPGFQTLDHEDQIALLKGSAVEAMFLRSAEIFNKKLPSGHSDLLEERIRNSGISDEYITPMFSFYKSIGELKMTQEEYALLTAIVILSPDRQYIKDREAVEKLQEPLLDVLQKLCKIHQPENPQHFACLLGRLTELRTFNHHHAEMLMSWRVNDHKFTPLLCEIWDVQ
T1 sequence (P19793 1-462 partner): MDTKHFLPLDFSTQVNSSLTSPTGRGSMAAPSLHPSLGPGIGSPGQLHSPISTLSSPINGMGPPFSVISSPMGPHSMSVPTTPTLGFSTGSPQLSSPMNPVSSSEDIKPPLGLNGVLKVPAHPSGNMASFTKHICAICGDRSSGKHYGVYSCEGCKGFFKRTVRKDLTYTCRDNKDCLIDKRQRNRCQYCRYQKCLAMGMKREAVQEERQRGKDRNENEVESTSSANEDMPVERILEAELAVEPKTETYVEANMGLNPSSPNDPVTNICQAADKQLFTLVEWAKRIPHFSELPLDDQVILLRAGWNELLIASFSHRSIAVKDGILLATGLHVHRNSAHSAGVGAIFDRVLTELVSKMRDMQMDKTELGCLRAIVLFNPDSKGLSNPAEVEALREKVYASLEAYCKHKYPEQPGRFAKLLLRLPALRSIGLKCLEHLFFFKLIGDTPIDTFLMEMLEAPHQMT

human GPBAR1 = biological target: T2, human GPBAR1 (Homo sapiens, UniProt Q8TDU6); experiment: GPBAR1-mediated transactivation, CRE-luciferase reporter in HEK-293T cells; type: cell-based; conditions: for GPBAR1 (% of activity compared to 10 µM TLCA): compound at 10 microM, TLCA = 100%
T2 construct: expressed in transfected cells; host or cells: HEK-293T
T2 sequence (Q8TDU6 1-330): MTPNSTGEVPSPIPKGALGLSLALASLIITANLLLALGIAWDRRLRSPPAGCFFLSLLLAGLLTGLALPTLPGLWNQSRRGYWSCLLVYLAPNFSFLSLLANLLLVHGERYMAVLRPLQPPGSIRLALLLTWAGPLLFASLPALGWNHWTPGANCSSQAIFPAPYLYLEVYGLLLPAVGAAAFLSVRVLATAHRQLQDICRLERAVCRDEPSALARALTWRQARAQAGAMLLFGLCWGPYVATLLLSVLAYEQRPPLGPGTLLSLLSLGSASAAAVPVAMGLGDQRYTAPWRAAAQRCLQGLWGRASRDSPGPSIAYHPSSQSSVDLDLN
Experimental: (§1) In this table, the activities of the compounds are compared with specific reference compounds, namely CDCA for FXR, TLCA for TGR5/GPBAR1, MK571 for CysLT1R. Each compound is tested at a concentration of 10 microM and the activity of the reference compounds is considered to be 100%.
In another experimental set, 24 hours after transfection, the cells were stimulated with 50 µM of the derivatives CHIN in combination with 10 µM of CDCA or TLCA.
(§2) Eighteen hours after stimulation, the cell lysates were used to assess Luciferase and Renilla activity by means of the Dual-Luciferase Reporter assay (E1980, Promega Madison WI). The luminescence was measured using the Glomax 20/20 luminometer (Promega, Madison WI) and the Luciferase activity was normalised with the Renilla activity.

FXR [2] = biological target: T1, FXR; experiment: FXR-mediated transactivation, luciferase reporter in HepG2 cells; type: cell-based; conditions: compound at 10 microM, CDCA = 100%
Experimental: as §1
For FXR-mediated transactivation, the HepG2 cells were transfected with 200 ng of the p(hsp27)-TK-LUC reporter vector containing the FXR response element (IR1) cloned from the heat shock protein 27 (hsp27) promoter, 100 ng of pSG5-FXR, 100 ng of pSG5-RXR and 100 of pGL4.70 (Promega, Madison WI), a vector encoding for the human Renilla gene. […]
as §2

CysLT1R = biological target: T3, CysLT1R (Homo sapiens, UniProt Q9Y271); experiment: CysLT1R antagonistic activity assay (Ca2+ fluorescence, 0.1 nM LTD4; Eurofins Cerep-Panlabs); type: cell-based; conditions: for IC50: antagonism of 0.1 nM LTD4, read-out: CysLTR1 ICso; for inhibition at 10 µM: read-out: CysLTR1 (% of inhibition compared to the compound MK571)
T3 construct: Eurofins Cerep-Panlabs (France)
T3 sequence (Q9Y271 1-337): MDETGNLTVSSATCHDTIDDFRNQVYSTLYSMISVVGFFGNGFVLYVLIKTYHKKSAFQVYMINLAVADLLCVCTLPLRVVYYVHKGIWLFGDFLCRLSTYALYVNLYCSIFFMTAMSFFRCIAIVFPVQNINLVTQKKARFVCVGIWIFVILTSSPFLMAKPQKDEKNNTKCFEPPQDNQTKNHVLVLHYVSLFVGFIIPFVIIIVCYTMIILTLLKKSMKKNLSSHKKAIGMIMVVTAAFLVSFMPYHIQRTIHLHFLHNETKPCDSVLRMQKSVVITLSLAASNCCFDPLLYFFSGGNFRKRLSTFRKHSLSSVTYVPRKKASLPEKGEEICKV
Experimental: as §1
The antagonistic activity assay was performed by Eurofins Cerep-Panlabs (France). […] The plates are then placed in a microplate reader (CellLux, PerkinElmer), which is used to add the compounds to be tested or the HBSS buffer and then after 5 min with a 0.1 nM LTD4 or HBSS buffer solution (used as control). The change in intensity and fluorescence that varies in proportion to the concentration of free Ca^2+ ion in the cytosol is measured.

wild-type C57/B16 mice = experiment: Acetaminophen (APAP)-induced acute hepatitis in mice; type: in vivo; conditions: APAP 500 mg/kg oral gavage; 30 mg/kg orally 45 min after induction; 24 hours
Experimental: CHIN117 and the effect thereof in reducing acetaminophen-induced liver damage (APAP) are of particular interest. In the experimental set, acute hepatitis was induced in wild-type C57/B16 mice by administration of acetaminophen (APAP) at a concentration of 500 mg/kg via oral gavage. 45 minutes after induction of the disease, CHIN117 was administered at a concentration of 30 mg/kg orally. The mice were sacrificed 24 hours after induction of the disease and blood was taken and analysed for blood count and AST and ALT transaminase values.
The administration of the compound CHIN117 was able to alleviate the APAP-induced liver damage by reducing AST and ALT values by about 10-fold if compared to those recorded in the group of mice treated with APAP alone.

S9 fraction = experiment: Metabolic stability in vitro, S9 fraction; type: in vitro ADME; conditions: also phase II enzymes
male C57BL/6 mice = experiment: HFD-F diet murine model of NAFLD/NASH; type: in vivo; conditions: 30 mg/kg daily from day 7
Experimental: CHIN117 and the efficacy thereof in a murine model of chronic hepatitis induced by a high-fat diet are of particular interest. This murine model simulates NAFLD, which represents a rapidly growing epidemic in industrialised countries and has a very high cost for the health care system. In this model, the mice (male C57BL/6 mice) were fed a diet rich in lipids and cholesterol (2% cholesterol) and added fructose (3%) in water (HFD-F) for 60 days. CHIN117 was administered daily at a dose of 30 mg/kg starting on day 7. […] After eight weeks, the mice develop insulin resistance, as shown by the OGTT results (FIGS. 4E, F).
In addition, HFD-F indicates an increase in body mass index (BMI) and weight of the white adipose tissue of the epididymis (eWAT), of the brown adipose tissue (BAT) and of the liver (FIGS. 5C-I).

Aqueous solubility = type: physicochemical; conditions: pH 7.4
[3] = compound at 10 microM, MK571 = 100%, 0.1 nM LTD4

SMILES	GPBAR1 (% of activity compared to 10 µM TLCA) (human GPBAR1) [%]	FXR (% of activity compared to 10 µM CDCA) (FXR [2]) [%]	inhibition at 10 µM (CysLT1R; [3]) [%]	also measured
OCc1cccc(-c2ccc(OCc3ccc4ccccc4n3)cc2)c1 [CHIN121, (4′-(quinolin-2-ylmethoxy)-[1,1′-biphenyl]-3-yl)methanol]	64.9	8.22		
OCc1cccc(-c2ccc(OCc3ccc4ccccc4n3)cc2)c1 [CHIN118]				CysLTR1 (% of inhibition compared to the compound MK571) (CysLT1R; [3]): 59%
CC(C)Oc1cccc(OCc2ccc3ccccc3n2)c1 [CHIN111, 2-((3-isopropoxyphenoxy)methyl)quinoline]			79	
CCC(C)COc1cccc(OCc2ccc3ccccc3n2)c1 (stereo not shown) [CHIN114, 2-((3-(2-methylbutoxy)phenoxy)methyl)quinoline]			15	
OCc1cc(O)cc(OCc2ccc3ccccc3n2)c1 [CHIN109, 3-(hydroxymethyl) -5-(quinolin-2-ylmethoxy)phenol]		5.92	26	
O=C(O)c1cc(O)cc(OCc2ccc3ccccc3n2)c1 [CHIN108, 3-hydroxy-5-(quinolin-2-ylmethoxy)benzoic Acid]		8.22		

More lines, main results first:

GPBAR1 (% of activity compared to 10 µM TLCA) (human GPBAR1) [%]	FXR (% of activity compared to 10 µM CDCA) (FXR [2]) [%]	inhibition at 10 µM (CysLT1R; [3]) [%]	SMILES	also measured
23	32.46		COC(=O)c1cccc(OCc2ccc3ccccc3n2)c1 [CHIN104, Methyl 3-(Quinolin-2-ylmethoxy)Benzoate]	EC50 (FXR [1]): 9 µM
17.58	12.78	59	COC(=O)c1cc(O)cc(OCc2ccc3ccccc3n2)c1 [CHIN107, methyl 3-hydroxy-5-(quinolin-2-ylmethoxy)benzoate]	IC50 (CysLT1R): > 10 µM
36.74	12.76	43	O=C(O)c1ccc(-c2ccc(OCc3ccc4ccccc4n3)cc2)cc1 [CHIN120, 4′-(quinolin-2-ylmethoxy)-[1,1′-biphenyl]-4-carboxylic Acid]	
56.91	11.14	21	COC(=O)c1cccc(-c2ccc(OCc3ccc4ccccc4n3)cc2)c1 [CHIN116, Methyl 4′-(quinolin-2-ylmethoxy)-[1,1′-biphenyl]-3-carboxylate]	
82	8.9	109	O=C(O)c1cccc(-c2ccc(OCc3ccc4ccccc4n3)cc2)c1 [CHIN117, 4′-(quinolin-2-ylmethoxy)-[1,1′-biphenyl]-3-carboxylic Acid]	circulating white blood cell (WBC) values (wild-type C57/B16 mice): comparable to those found in untreated mice; reduction of ALT values compared to mice treated with APAP alone (wild-type C57/B16 mice): about 10 fold; reduction of AST values compared to mice treated with APAP alone (wild-type C57/B16 mice): about 10 fold; CLint S9 fraction (S9 fraction): 6; IC50 (CysLT1R): 5.67 µM; reduction of weight gain (male C57BL/6 mice; HFD-F diet 60 days): about 3 grams; hepatic steatosis, BMI and eWAT, BAT and liver weight (male C57BL/6 mice; HFD-F diet for 8 weeks): almost completely reversed the disease; AUC of OGTT (male C57BL/6 mice; HFD-F diet, after eight weeks): reduces the AUC of OGTT; ALT levels (male C57BL/6 mice; plasma, HFD-F diet): statistically reduces; AST levels (male C57BL/6 mice; plasma, HFD-F diet): statistically reduces; LDL levels (male C57BL/6 mice; plasma, HFD-F diet): statistically reduces; EC50 (human GPBAR1; dose-response 0.1-75 µM, read-out: GPBAR1 ECso): 4.6 µM; aqueous solubility (Aqueous solubility): 66 µM (≈ 23.5 µg/mL)
13.5	6.83	13	COC(=O)c1ccc(-c2ccc(OCc3ccc4ccccc4n3)cc2)cc1 [CHIN119, Methyl 4′-(quinolin-2-ylmethoxy)-[1,1′-biphenyl]-4-carboxylate]	
